Row | SMILES | melting point [°C]
1 | O=c1[nH]c(Nc2ccccc2)nc2c1ncn2CC(O)CO (configuration not stated) | 312 to 315
2 | O=CNC(Cc1ccccc1)C1CC(Cc2ccccc2)=NO1 (configuration not stated) | 112 to 113
3 | OC(=S)Cc1cccc2ccccc12 | 106
4 | Nc1ccc2[nH]c(-c3ccccc3)cc2c1 | 220
5 | CN1C(=O)c2cscc2Nc2cc(Cl)c(Cl)cc21 | 265 to 267
6 | COc1ccc2nc(NC(=O)c3nnn(Cc4ccc(Cl)c(Cl)c4)c3C)sc2c1 | 225
7 | COc1ccc(NC(=O)/C=C/c2ccc(C(C)(C)C)cc2)cc1OC | 115 to 116
8 | C(=Cc1ccc(-c2nc(-c3ccc(C=Cc4ccccc4)cc3)n(-c3ccccc3)n2)cc1)c1ccccc1 | 218 to 220
9 | CC(C)(Cc1c[nH]c2ccc(Br)cc12)[N+](=O)[O-] | 106 to 109
10 | O=C1/C(=C(\NC2CC2)c2ccccc2)Sc2ccccc21 | 131 to 132
11 | O=C(N[C@@H](CCO)C(=O)O)OCc1ccccc1 | 125 to 128
12 | COc1nc(C(F)(F)F)c(F)c(=O)n1-c1cc(C(=O)OC(C)C)c(Cl)cc1F | 104 to 106
13 | CC(C)Oc1ccc(C=C(C=O)C(C=O)=Cc2ccc(OC(C)C)cc2)cc1 | 200 to 202
14 | N#CC1=C(C#N)N=CCC=N1 | 189 to 190
15 | COc1ccc(Nc2ccc3c(n2)CC(C)(C)CC3=O)cc1 | 149 to 150
16 | C[C@H](NC(=O)c1ccccc1)C(=O)N[C@@H](C)C(=O)Nc1ccccc1 | 245 to 248
17 | CCCCCCNc1ccc(OC2CCN(C(=O)OC(C)(C)C)CC2)cc1 | 46 to 47
18 | O=C(O)Cc1ccc(C(=O)c2cccs2)cc1 | 126 to 129
19 | COC(=O)c1ccc(=O)n(CCNC(=O)c2cnccn2)c1 | 195 to 197
20 | OCC(CCNC1CCC(c2ccc(OCc3ccccc3)cc2)CC1)c1ccccc1 (racemic) | 140 to 142
21 | O=[N+]([O-])N=C1N(Cc2ccc(Cl)nc2)CCN1[N+](=O)[O-] | 158
22 | CC(COc1cccc(=O)n1O)CC(C)(C)C (configuration not stated) | 134
23 | CCCn1c(=O)c2[nH]c(-c3ccc(C#N)cc3)nc2n(C)c1=O | 314 to 318
24 | CCCc1nc2c(N)nc(C)c(C)c2n1CCCC(C)=O | 148 to 150
25 | CCOC(=O)c1cc2ccccc2n1CC1CC(=O)N(Cc2ccccc2)C1 (configuration not stated) | 93 to 94
26 | Cn1nnc2ccc(C(c3ccc(Cl)cc3)n3ccnc3)cc21 (configuration not stated) | 87.7

Row | SMILES | melting point [°C]
27 | C#CCOc1cc(C(=O)O)cc([N+](=O)[O-])c1C(=O)c1ccccc1 | 169 to 172
28 | COC(=O)CCc1cccc(-n2c(C)nn(-c3ccc(C#N)cc3)c2=O)c1 | 134 to 137
29 | O=C1C(Br)=C(Br)C(=O)c2c(F)cccc21 | 100
30 | CCCSc1ncc(CC(NC(=O)C2CCCC2)C(=O)O)n1Cc1ccccc1Cl (configuration not stated) | 173 to 175
31 | Cc1nc2c(n1C(=O)OC(C)(C)C)CCCC2=O | 126
32 | S=C(NCCN(Cc1ccc(Cl)c(Cl)c1)c1ccc(Br)cn1)Nc1ccc(N2CCCCC2)cc1 | 146 to 148
33 | C=C(C)Cn1c(N)c(N)c(=O)n(C)c1=O | 152 to 153
34 | O=C(O)c1ccc(-c2nc3ccccc3s2)nc1 | > 300
35 | CCOC(=O)Cc1ccc(OCCCN2C(=O)c3ccccc3C2=O)c(OC)c1 | 70 to 72
36 | CC(C)(C(=O)O)c1nc2ccc(OCCCN3CCN(C(c4ccccc4)c4ccccc4)CC3)nn2c1Cl | 118 to 121
37 | Cc1ccc2c(n1)Nc1ccccc1N(C)C2=O | 192 to 194
38 | O=C(NCCO)/C(=C/c1ccc(OC(F)(F)F)cc1)NC(=O)c1ccc(OCCC(F)(F)F)cc1 | 159 to 160
39 | O=C(Nc1ccc(N2C[C@@H]3C[C@H]2CO3)c(F)c1)OCc1ccccc1 | 120 to 121
40 | CC(=O)Nc1ccc2nc(CN3CCCCC3)ccc2c1 | 182 to 184
41 | Cc1ccc(-n2nc(C(F)F)cc2-c2ccc(S(C)(=O)=O)cc2)cc1Br | 136 to 138
42 | COc1cc(N)c(Cl)cc1C(=O)OCC12CCCN(CC1)C2 (configuration not stated) | 131 to 133
43 | O=C1C(c2ccccc2)=C(c2ccccc2)C(=O)N1CCc1ccccc1F | 111 to 112
44 | C=CCc1cc2c(c(CC=C)c1O)NC(=O)CO2 | 114 to 115
45 | CC1(CNC(=O)C(F)(F)F)CN(c2cc3c(cc2F)c(=O)c(C(=O)O)cn3C2CC2)C1 | 265 to 272
46 | CCn1c(=O)c2[nH]c(/C=C/c3ccc4c(c3)OCO4)nc2n(CC)c1=O | > 275
47 | CCN(CC)CCOc1ccc(C#Cc2ccc(OC)cc2)cc1 | 59 to 60
48 | COc1cccn(C2c3cc(S(=O)(=O)C(F)(F)F)ccc3OC(C)(C)C2O)c1=O (configuration not stated) | 223 to 225
49 | COc1cc2c(=O)n(CCCc3ccccc3)c3cc(OC)c(OC)cc3c2cc1OC | 209 to 211
50 | CCOc1c(N)c2c(c(OCC)c1OCC)C(C1c3cc(OC)c(OC)cc3CCN1C)OC2=O (configuration not stated) | 143
51 | Cc1cccc2cc3c(=O)n(CCOC(=O)NCCN(C)C)cc(C(=O)NCCN(C)C)c3nc12 | 75 to 76
52 | COC(=O)c1cc(Cl)c(C)c(Br)c1 | 53 to 55

Row | SMILES | melting point [°C]
53 | NC(=O)c1sc2nc(N3CCC(NCC(O)c4cccnc4)CC3)cc(C(F)(F)F)c2c1N (configuration not stated) | 179 to 181
54 | COC(=O)N[C@H](C(=O)N[C@@H](Cc1ccccc1)[C@@H](O)CN(Cc1ccc(-c2nccs2)cc1)NC(=O)OC(C)(C)C)C(C)C | 178 to 179
55 | NC[C@@H]1CCCc2cc(S(=O)(=O)Nc3cccc(F)c3)ccc21 | 122 to 123
56 | Cc1c(-c2ccc(C(=O)O)cc2)ccc(-c2ccccc2)c1-c1ccc2c(c1)C(C)(C)CCC2(C)C | 130 to 132
57 | O=C(c1ccccc1)c1cnc2c(n1)CCCC2 | 61.5 to 63.5
58 | OCc1cccc(-n2cccc2)c1 | 64 to 67
59 | CCC(CC)Nc1cc(C)nc(Nc2c(C)cc(C)cc2C)c1[N+](=O)[O-] | 104 to 107
60 | CCCCNc1c(N)c(N)nc(C)c1C(=O)OCC | 82 to 83
61 | COc1cc2c(cc1O)C(O)CN(Cc1cc(OC)c(OC)c(OC)c1)C2 (configuration not stated) | 62 to 63
62 | COc1ccc(NCC(C)C#N)c([N+](=O)[O-])c1 (configuration not stated) | 114 to 115
63 | Cc1c(CC(=O)O)c2cc(OCc3nc4ccccc4s3)ccc2n1Cc1ccc(Cl)cc1 | 175 to 176
64 | CCCCCCn1c2ccccc2c2ccccc21 | 62.5 to 64.1
65 | COC(=O)C1Oc2ccc(C)cc2Cc2cc(C)ccc2O1 | 158 to 160
66 | O=C(O)c1ccc(C(F)(F)F)cc1SC1CCCCC1 | 115 to 116
67 | CCOC(=O)C1=C(C(F)(F)F)Nc2n[nH]c(C)c2C1c1ccccc1Cl (configuration not stated) | 165 to 168
68 | Cc1cccc(N)c1CNc1cccn2c(C=O)c(C)nc12 | 230 to 234
69 | Cn1ccc2c3c(c(C(=O)OCc4ccccc4)cc21)C(=O)NC3=O | 186 to 189
70 | CCCC=Cc1c(C(C)C)nc(C(C)C)c(CO)c1-c1ccc(-c2ccccc2)cc1 | 50 to 52
71 | Cc1cc(O)c(C)c2c1C(C)CC(C)(C)O2 (configuration not stated) | 88 to 89
72 | CCC(O)(c1ccc(F)cc1)c1ccc(OCCN2CCCCC2)cc1 (configuration not stated) | 72 to 73
73 | CCN(CC)c1ccc(/C=C/C(=O)CC(=O)/C=C/c2ccc3cc[nH]c3c2)c(OC)c1 | 61 to 65
74 | CC(Cl)(Cl)C(NC(=O)c1cccc(Cl)c1)NC(=NC#N)Nc1ccc(Cl)nc1 (configuration not stated) | 138 to 140
75 | C#CCSc1nnc(-c2cccs2)s1 | 71 to 73
76 | COc1ccc2c(c1)C(=O)C(=O)C1=C2OC2(CCN(CC(O)COc3ccc(F)cc3)CC2)CS1 (configuration not stated) | 189 to 191
77 | CCc1cnc(C2=NC(C)(C(C)C)C(=O)N2)c(C(=O)OC(C)CC)c1 (configuration not stated) | 83 to 87
78 | Cc1ccc([N+](=O)[O-])c2c1CCCC2=O | 104 to 107

Row | SMILES | melting point [°C]
79 | CNC(=S)C1(c2ccccn2)CCCS1 (configuration not stated) | 131
80 | O=C(NCCC[PH](=O)O)OCc1ccccc1 | 53 to 55
81 | N#CCCNC(=O)c1ccnc(-c2cccc3oc(Cc4cccc(C(F)(F)F)c4)cc23)c1 | 114 to 115
82 | N#CC1(Nc2ccccc2)CCN(C2C3CCCC2CCC3)CC1 (configuration not stated) | 168
83 | O=C(O)Cc1c(C(=O)c2cc3ccccc3cn2)[nH]c2cc(Cl)ccc12 | 236 to 237
84 | Nc1c(Cl)cc(C(=O)NC2CCN(CCO)CC2)c2c1CCO2 | 186
85 | Cc1nnc(COc2ccc([N+](=O)[O-])cc2)o1 | 105 to 106
86 | CONC(=N)c1ccc(-c2cc3ncn([C@H](C)[C@](O)(Cn4cncn4)c4ccc(F)cc4F)c(=O)c3s2)cc1 | 125 to 128
87 | COC(=O)c1ccc(CN2CCN(c3nc(C)cs3)C2=O)cc1 | 157 to 158
88 | COC(Cc1c(Br)cc(Br)c(N)c1Br)C(=O)O (configuration not stated) | 173 to 175
89 | NC(=O)Cn1c(-c2ccccc2)nc2cccnc21 | 226 to 227
90 | Nc1ccc(N2CCN(c3ccccc3OCC3COC(Cn4cncn4)(c4ccc(Cl)cc4Cl)O3)CC2)cc1 (configuration not stated) | 187
91 | O=C(N[C@H](Cc1ccc(F)cc1)[C@@H](O)c1ccc(C(F)(F)F)cc1)c1cccc2ccccc12 (racemic) | 207 to 208
92 | COc1cccc(NC(=O)C(F)(F)F)c1 | 115
93 | O=c1[nH]c2ccc(C#CCCN3CCC(Cc4ccccc4)CC3)cc2[nH]1 | 221 to 223
94 | CCOC(=O)C1=C(C)Nc2ncnn2C1C (configuration not stated) | 155 to 157
95 | C=C1N(c2ccccc2)C(=O)OC12CCNCC2 | 185 to 186
96 | CC(C)(C)c1ccccc1N1CCN(C(=O)CC#N)CC1 | 163 to 164
97 | CC(C)(C)c1nc(O)cc(OC(F)F)n1 | 156
98 | CC(C)(C)C1C=C(Cn2nc(-c3ccccc3-c3nn(CC4=CC(C(C)(C)C)C(O)(C(C)(C)C)C=C4)c(=O)o3)oc2=O)C=CC1(O)C(C)(C)C (configuration not stated) | 220
99 | COc1cccc(Oc2ccc3ccc(N)nc3n2)c1 | 160
100 | CCOC(=O)c1nn(-c2ccc(Cl)cc2Cl)c(-c2cccs2)c1C | 121 to 122
101 | O=C1c2cc(N(CCO)CCO)ccc2OC12CC2 | 96 to 97
102 | O=Cc1ccc(N2CCC3(CC2)OCCO3)c(Br)c1 | 63 to 64
